Key:
HepG2 [1] = test: Cytotoxicity in human HepG2 cells assessed as reduction in cell viability incubated for 72 hrs by cell-titer Glo asay; format: functional, cell-based; conditions: HepG2, 72 h
Huh-7 = test: Cytotoxicity in human HuH7 cells assessed as reduction in cell viability incubated for 72 hrs by cell-titer Glo asay; format: functional, cell-based; conditions: Huh-7, 72 h
Hep 3B2 = test: Cytotoxicity in human Hep3B cells assessed as reduction in cell viability incubated for 72 hrs by cell-titer Glo asay; format: functional, cell-based
HL-60 = test: Cytotoxicity in human HL60 cells assessed as reduction in cell viability incubated for 24 hrs by MTT assay; format: functional, cell-based; conditions: HL-60, 24 h
MCF7 [2] = test: Cytotoxicity in human MCF7 cells assessed as reduction in cell viability incubated for 48 hrs by SRB assay; format: functional, cell-based; conditions: MCF7, 48 h
A549 [3] = test: Cytotoxicity in human A549 cells assessed as reduction in cell viability incubated for 48 hrs by SRB assay; format: functional, cell-based; conditions: A549, 48 h
PC-3 [4] = test: Cytotoxicity in human PC3 cells assessed as reduction in cell viability incubated for 48 hrs by SRB assay; format: functional, cell-based; conditions: PC-3, 48 h
HT-29 [5] = test: Cytotoxicity in human HT-29 cells assessed as reduction in cell viability incubated for 96 hrs by SRB assay; format: functional, cell-based; conditions: HT-29, 96 h
A549 [6] = test: Cytotoxicity in human A549 cells assessed as reduction in cell viability incubated for 96 hrs by SRB assay; format: functional, cell-based; conditions: A549, 96 h
NIH3T3 = test: Cytotoxicity in mouse NIH/3T3 cells assessed as reduction in cell viability incubated for 96 hrs by SRB assay; format: cell-based; conditions: NIH3T3, 96 h
MCF7 [7] = test: Cytotoxicity in human MCF7 cells assessed as reduction in cell viability; format: functional, cell-based
HepG2 [8] = test: Cytotoxicity in human HepG2 cells assessed as reduction in cell viability; format: functional, cell-based
BGC-823 = test: Cytotoxicity in human BGC823 cells assessed as reduction in cell viability incubated for 72 hrs by MTT assay; format: functional, cell-based; conditions: BGC-823, 72 h
PC-3 [9] = test: Cytotoxicity in human PC3 cells assessed as reduction in cell viability incubated for 72 hrs by MTT assay; format: functional, cell-based; conditions: PC-3, 72 h
MDA-MB-231 = test: Cytotoxicity in human MDA-MB-231 cells assessed as reduction in cell viability incubated for 24 hrs by MTT assay; format: functional, cell-based; conditions: MDA-MB-231, 24 h
MCF7 [10] = test: Cytotoxicity in human MCF7 cells assessed as reduction in cell viability incubated for 24 hrs by MTT assay; format: functional, cell-based; conditions: MCF7, 24 h
4T1 = test: Cytotoxicity in mouse 4T1 cells assessed as reduction in cell viability incubated for 24 hrs by MTT assay; format: functional, cell-based; conditions: 4T1, 24 h
HMEC = test: Cytotoxicity in human HMEC cells assessed as reduction in cell viability incubated for 48 hrs by SRB assay; format: cell-based
ASPC1 = test: Growth inhibition of human AsPC1 cells incubated for 72 hrs by MTT assay; format: functional, cell-based; conditions: ASPC1, 72 h
[11] = Cytotoxicity in human […] cells assessed as reduction in cell viability incubated for 72 hrs by MTT assay; format: functional, cell-based
AGS = test: Antiproliferative activity in human AGS cells incubated for 3 days by MTT assay; format: functional, cell-based; conditions: 72 h
HeLa = test: Cytotoxicity in human HeLa cells assessed as reduction in cell viability incubated for 72 hrs by MTT assay; format: functional, cell-based
HT-29 [12] = test: Cytotoxicity in human HT-29 cells assessed as reduction in cell viability incubated for 72 hrs by MTT assay; format: functional, cell-based; conditions: HT-29, 72 h
MCF7 [13] = test: Cytotoxicity in human MCF7 cells assessed as reduction in cell viability incubated for 72 hrs by MTT assay; format: functional, cell-based; conditions: MCF7, 72 h
BJ = test: Cytotoxicity in human BJ cells assessed as reduction in cell viability incubated for 72 hrs by MTT assay; format: functional, cell-based

CC1=C(O)C(=O)C=C2C1=CC=C1[C@@]2(C)CC[C@@]2(C)[C@@H]3C[C@](C)(C(=O)OCc4ccccc4)CC[C@]3(C)CC[C@]12C
IC50 (HepG2 [1]): 4.26 µM
IC50 (Huh-7): 2.15 µM
IC50 (Hep 3B2): 2.77 µM

CCC(=O)O[C@H]1CC[C@@]2(C)[C@@H](CC[C@]3(C)[C@@H]2CC=C2[C@@H]4[C@@H](C)[C@H](C)CC[C@]4(C)CC[C@]23C)[C@@]1(C)C(=O)O
IC50 (HL-60): 14 µM
IC50 (MCF7 [2]): 29 µM
IC50 (A549 [3]): 29 µM
IC50 (PC-3 [4]): 31 µM

COC(=O)[C@]12CCC(C)(C)C[C@H]1C1=CC[C@@H]3[C@@]4(C)C[C@@H](O)[C@H](OS(N)(=O)=O)C(C)(C)[C@@H]4CC[C@@]3(C)[C@]1(C)CC2
IC50 (HT-29 [5]): 3.5 µM
IC50 (A549 [6]): 4 µM
IC50 (NIH3T3): 2.2 µM

CC(=O)O/N=C1\CC[C@]2(C)[C@H]3CC=C4[C@@H]5[C@@H](C)[C@H](C)CC[C@]5(C(=O)O)CC[C@@]4(C)[C@]3(C)CC[C@H]2C1(C)C
IC50 (MCF7 [7]): 3.4 µM
IC50 (HepG2 [8]): 4.3 µM

CCCC(=O)O[C@H]1CC[C@]2(C)[C@H]3CC=C4[C@@H]5CC(C)(C)CC[C@]5(C(=O)n5ccc(=O)[nH]c5=O)CC[C@@]4(C)[C@]3(C)CC[C@H]2C1(C)C
IC50 (BGC-823): 0.22 µM
IC50 (PC-3 [9]): 0.28 µM

CC(=O)Oc1ccccc1C(=O)O[C@H]1CC[C@]2(C)[C@H]3CC=C4[C@@H]5[C@@H](C)[C@H](C)CC[C@]5(C(=O)O)CC[C@@]4(C)[C@]3(C)CC[C@H]2C1(C)C
IC50 (MDA-MB-231): 63.9 µM
IC50 (MCF7 [10]): 72.2 µM
IC50 (4T1): 62 µM
IC50 (HMEC): > 100 µM

COC(=O)[C@]12CCC(C)(C)C[C@H]1C1=CC[C@@H]3[C@@]4(C)C/C(=C/n5ccnc5)C(=O)C(C)(C)[C@@H]4CC[C@@]3(C)[C@]1(C)CC2
IC50 (ASPC1): < 5 µM

C[C@H]1[C@H](C)CC[C@]2(C(=O)OCc3ccccc3)CC[C@]3(C)C(=CC[C@@H]4[C@@]5(C)CC[C@H](OC(=O)CCC(=O)O)C(C)(C)[C@@H]5CC[C@]43C)[C@H]12
IC50 [11]: 8.1 µM

CC1(C)CC[C@]2(C(=O)O)CC[C@]3(C)C(=CC[C@@H]4[C@@]5(C)CC[C@H](OC(=O)CCc6cn(-c7ccc(Cl)cc7)nn6)C(C)(C)[C@@H]5CC[C@]43C)[C@@H]2C1
IC50 (AGS): 8.9 µM

COC(=O)[C@]12CC[C@@H](C)[C@H](C)[C@H]1C1=CC(=O)[C@@H]3[C@@]4(C)C(C=O)=C[C@@](C)(CO)[C@@H]4CC[C@@]3(C)[C@]1(C)CC2
IC50 (HeLa): 0.3 µM
IC50 (HT-29 [12]): 0.59 µM
IC50 (MCF7 [13]): 0.74 µM
IC50 (BJ): 3.33 µM
